Marks after values point to notes of the source that are not given here.
Legend:
[1] = system: transformed human airway epithelial cells (CFT1-LCFSN line); test: Inhibition of internalization of P. aeruginosa strain 149 into CFT1-LCFSN cells (bacterial ingestion assay); assay type: cell-based; settings: strain 149, CFT1-LCFSN cells
Text: (§1) Cell lines. CFT1-LCFSN cells, carrying a retrovirally introduced chromosomal copy of the wild-type human CFTR gene were kindly provided by J. Olsen, J. Yankaskis and L. Johnson from The University of North Carolina, Chapel Hill, N.C.. The cell line parental to CFT1-LCFSN is designated CFT1; it is a line of human papilloma virus 18 E6/E7 transformed bronchial epithelial cells derived from a CF patient homozygous for ΔF508 CFTR. The CFT1-LCFSN cells have normal chloride ion conductance. CFT1-ΔF508 cells are derived from CFT1 cells and carry a cDNA introduced by a retrovirus vector that encodes the ΔF508 mutant form of CFTR. Cells were grown in supplemented F-12 medium as described in 5% CO2 at 37° C.
(§2) Bacterial strains. P. aeruginosa strains used include PAO1, a well-characterized laboratory strain, and strains 149 and 324, non-mucoid, LPS-smooth clinical isolates of P. aeruginosa from CF patients early in the course of infection. Fresh cultures of P. aeruginosa grown overnight at 37° C. on a tryptic soy agar plate were suspended in supplemented medium to prepare the bacterial inoculum. Approximately 10^6 cfu of the bacterial inoculum were added per well of 10^5, epithelial cells.
(§3) Reagents for inhibition of ingestion assays. Membranes were prepared from C127 cells as described by O'Riordan et al.. Membranes were suspended in 150 mM NaCl, 50 mM Tris, pH 7.5 and 1 mM EDTA and added at the indicated concentration to suspensions of P. aeruginosa strains prior to adding this mixture to CFT1-LCFSN cells to measure bacterial uptake. Membranes from CEM/VbI cells expressing P-glycoprotein and membranes from control CEM cells lacking P-glycoprotein were obtained from James Croop of Harvard Medical School. Purified (˜85%) recombinant CFTR was obtained from Genzyme Corp., and prepared as described. The protein was solubilized in 100 mM NaCl, 10 mM Tris, pH 8.0, 2 mM di-thio-threitol and 0.1% sodium dodecyl sulfate. Monoclonal antibodies raised to synthetic peptides corresponding to the first (MAb CF3) and fourth (MAb CF4) predicted extracellular domains of CFTR, as well as a MAb specific to a peptide representing the carboxy-terminal 14 amino acids of mature CFTR (MAb CF2) were provided by Dr. George Banting, University of Bristol, Bristol, UK [12]. Synthetic peptides were obtained from Chiron Mimetopes, San Diego, Calif. Peptide GRIIASYDPDNKEER (15 amino acids) (SEQ.ID.NO. 3) represents amino acids 103-117 of mature CFTR, peptide […] (31 amino acids) (SEQ.ID.NO. 4) represents amino acids 881-911 of mature CFTR. Peptides were made up as a stock solution in F-12 medium containing 1 μM/μl based on the purity reported by the manufacturer. Peptides were diluted in F-12 tissue culture medium prior to use in assays.
(§4) Bacterial ingestion assay. Cells were released from monolayers in tissue culture flasks by 5 min. of incubation with trypsin-versene mixture (BioWhitaker, Walkersville, Md.), washed, counted and seeded into 96-well tissue culture plates at 10^5 cells/well in supplemented F-12 medium and incubated at 37° C. in 5% CO2. Fresh cultures of P. aeruginosa grown overnight at 37° C. on a tryptic soy agar plate were suspended in supplemented F-12 medium to prepare the bacterial inoculum. Then 10^6 colony forming units (cfu) of the bacterial inoculum were added per well of 10^5 epithelial cells. Bacteria were allowed to invade the epithelial cells for 3 to 4 hours at 37° C., after which nonadherent bacteria were removed by washing. The remaining steps of the assay and the steps involved in the controls have previously been described. Three to 9 replicates were obtained per point, and analyzed using analysis of variance (ANOVA) and the Fisher PLSD statistic to determine pairwise differences. […]

[2] = system: transformed human airway epithelial cells (CFT1-LCFSN line); test: Inhibition of internalization of P. aeruginosa strain PAO1 into CFT1-LCFSN cells (bacterial ingestion assay); assay type: cell-based; settings: strain PAO1, CFT1-LCFSN cells
Text: as §1, §2
as §3, with “GRIIASYDPDNKEER” left out
as §4

Row | Sequence | Mean cfu of P. aeruginosa internalized (standard deviation) ([1]; 0.001 nanomoles peptide) | Mean cfu of P. aeruginosa internalized (standard deviation) ([1]; 0.01 nanomoles peptide) | Mean cfu of P. aeruginosa internalized (standard deviation) ([1]; 0.1 nanomoles peptide) | Mean cfu of P. aeruginosa internalized (standard deviation) ([1]; 1 nanomoles peptide) | Mean cfu of P. aeruginosa internalized (standard deviation) ([2]; 0.001 nanomoles peptide) | Mean cfu of P. aeruginosa internalized (standard deviation) ([2]; 0.01 nanomoles peptide) | Mean cfu of P. aeruginosa internalized (standard deviation) ([2]; 0.1 nanomoles peptide) | Mean cfu of P. aeruginosa internalized (standard deviation) ([2]; 1 nanomoles peptide)
1 | GRIIASYDPDNKEER (listed as Homo Sapiens) [First domain] | 5.73 × 10^4 (4.006 × 10^3) cfu | 1.705 × 10^4 (2.1333 × 10^3)^a cfu | 7.0167 × 10^3 (8.542 × 10^2)^a cfu | 3.7833 × 10^3 (4.491 × 10^2)^a cfu | 5.533 × 10^4 (5.2986 × 10^3) cfu | 3.482 × 10^4 (3.8473 × 10^3)^a cfu | 2.513 × 10^4 (1.6609 × 10^3)^a cfu | 2.383 × 10^4 (4.6207 × 10^3)^a cfu
2 | LWLLGNTPLQDKGNSTHSRNNSYAVIITSTS (listed as Homo Sapiens) [Fourth domain, reference compound] | 4.752 × 10^4 (5.9915 × 10^3) cfu | 4.86 × 10^4 (4.6463 × 10^3) cfu | 5.528 × 10^4 (6.0598 × 10^3) cfu | 5.735 × 10^4 (4.0009 × 10^3) cfu | 6.978 × 10^4 (5.4745 × 10^3) cfu | 7.23 × 10^4 (3.6721 × 10^3) cfu | 7.488 × 10^4 (5.0653 × 10^3) cfu | 8.708 × 10^4 (4.0519 × 10^3) cfu

— patent US6825178B1, “Methods and products for treating pseudomonas infection” (The Brigham and Women's Hospital, Inc., priority 1996, dated 2004)
